Data taken from patent US7803942B2, “Crystals of morphinan derivative and process for producing the same” (Toray Industries, Inc., priority 2005, dated 2010).

Test: pH of aqueous solution after production (Test Example 2)
Type: physicochemical
Details: 100 mg dissolved in 10 mL of decarbonated water; pH reproducibility after production; hydrochloride
Experimental: There was taken 100 mg each of the amorphous powders obtained in Reference Examples 1 to 3 and the A-form crystals obtained in Examples 1 to 3, to which 10 mL of decarbonated water was added for dissolution, followed by measuring the pH.

Row | Structure (SMILES) | pH
1 | CN(C(=O)/C=C/c1ccoc1)[C@@H]1CC[C@@]2(O)[C@H]3Cc4ccc(O)c5c4[C@@]2(CCN3CC2CC2)[C@H]1O5.Cl [Example 1, 17-cyclopropylmethyl-3,14β-dihydroxy-4,5α-epoxy-6β-[N-methyl-trans-3-(3-furyl)acrylamido]morphinan hydrochloride] | 5.8
2 | CN(C(=O)/C=C/c1ccoc1)[C@@H]1CC[C@@]2(O)[C@H]3Cc4ccc(O)c5c4[C@@]2(CCN3CC2CC2)[C@H]1O5.Cl [Example 2, 17-cyclopropylmethyl-3,14β-dihydroxy-4,5α-epoxy-6β-[N-methyl-trans-3-(3-furyl)acrylamido]morphinan hydrochloride] | 5.4
3 | CN(C(=O)/C=C/c1ccoc1)[C@@H]1CC[C@@]2(O)[C@H]3Cc4ccc(O)c5c4[C@@]2(CCN3CC2CC2)[C@H]1O5.Cl [Example 3, 17-cyclopropylmethyl-3,14β-dihydroxy-4,5α-epoxy-6β-[N-methyl-trans-3-(3-furyl)acrylamido]morphinan hydrochloride] | 5.6
4 | CN(C(=O)/C=C/c1ccoc1)[C@@H]1CC[C@@]2(O)[C@H]3Cc4ccc(O)c5c4[C@@]2(CCN3CC2CC2)[C@H]1O5.Cl [Reference Example 1, 17-cyclopropylmethyl-3,14β-dihydroxy-4,5α-epoxy-6β-[N-methyl-trans-3-(3-furyl)acrylamido]morphinan hydrochloride] | 3.7
5 | CN(C(=O)/C=C/c1ccoc1)[C@@H]1CC[C@@]2(O)[C@H]3Cc4ccc(O)c5c4[C@@]2(CCN3CC2CC2)[C@H]1O5.Cl [Reference Example 2, 17-cyclopropylmethyl-3,14β-dihydroxy-4,5α-epoxy-6β-[N-methyl-trans-3-(3-furyl)acrylamido]morphinan hydrochloride] | 4.7
6 | CN(C(=O)/C=C/c1ccoc1)[C@@H]1CC[C@@]2(O)[C@H]3Cc4ccc(O)c5c4[C@@]2(CCN3CC2CC2)[C@H]1O5.Cl [Reference Example 3, 17-cyclopropylmethyl-3,14β-dihydroxy-4,5α-epoxy-6β-[N-methyl-trans-3-(3-furyl)acrylamido]morphinan hydrochloride] | 3.5
